# Reference: patent publication US20080119517A1, “COMPOSITIONS AND METHODS FOR PROTECTING AGAINST MITOCHONDRIA COMPONENT-MEDIATED PATHOLOGY” (Cornell Research Foundation, Inc., priority 2003, published 2008)
# Entries after “also recorded” stand apart in the source; their conditions may differ.
# What was measured:
# [1] = tested on: rabbit models of cerebral and spinal ischemia; conditions: in vivo; cited from earlier work
# [2] = tested on: isolated liver mitochondria; assay: Four-parameter mitochondrial physiology (oxygen, Ca2+, membrane potential, swelling); type: biochemical, rat; conditions: 10 μM; for protection against PT induction (swelling, A660): high Ca2+ dose
# Method: Mitochondrial physiological parameters were assessed to determine whether these heterocyclics and related compounds interfered direly with mitochondrial functions, and whether such interference might underlie their protection (e.g., respiratory inhibitors can score as protective in some assays, as can uncouplers, but neither would be optimal as a therapeutic candidate). […]; methiothepin [serotonin modulator]; clomipramine [antidepressant]).
# FIG. 5 illustrates that the heterocyclic compounds delay PT induction in isolated liver mitochondria without impairing mitochondrial physiology. FIG. 5a depicts oxygen consumption measured by Clark electrode. Oxygen concentration in buffer decreases as the signal decreases. FIG. 5b depicts Ca^2+ transport measured by Ca^2+— selective electrode. The Ca^2+ in buffer increases as the signal increases. FIG. 5c depicts Δψ measured using a TPP^+ electrode. The Δψ parameter decreases as the signal increases. TPP^+ uptake determined by comparison with standard curve after correction for shift in the electrode signal is induced by the compounds examined. […] Changes in Δψ consistent with the slight increases in respiration (equivalent to approximately 5% of maximally uncoupled mitochondria) observed with some drags is likely below the limit of detection. FIG. 5d depicts mitochondrial swelling (absorbance) monitored by a light emitting diode BET) at A660. Mitochondrial are more swollen when signal decreases. Assay in 300 mM sucrose, 2.5 mM K—PO4, 3 mM HERPES, pH 7.2 and 5 mM succinate. Experiments were stopped shortly after oxygen was consumed.
# Liver mitochondrial respiration was measured in 250 mM sucrose, 3 mM MgCl2, 0.5 mM EDTA, 10 mM KH2PO4 (pH 7.2). The buffer was equilibrated at 28° C. for not less than an hour before taking measurements. Respiration was initiated by adding mitochondria isolate to the oxygraph cell (0.9±0.2 mg/mL protein). State 3 respiration was initiated with ADP (˜200 μM). The substrates were added at either 5 or 10 mM for α-ketoglutarate and glutamate/malate and 10-20 mM for succinate. Respiration rates were determined using a PC-controlled Strathkelvin Instruments Limited 928 6-Channel Dissolved Oxygen System with two standard Clark-type electrodes fitted to two standard Gilson 1.7-1.8 mL oxygraph cells. Traces were analyzed using the Strathkelvin data acquisition and analysis program included with the instrument. The lines of best fit were calculated and plotted to polarographic traces using the built-in software function based on least squares regression analysis. State 3 respiration rates were calculated when stabilized, i.e., 1.0-1.5 minutes after initiating the state. Respiration before and after ADP consumption was used to calculated RCR. All experiments were carried out in triplicate. All substrates used in mitochondrial respiration experiments were dissolved in respiration buffer (see below) and brought to neutral pH.
# The experimental system employed comprises a respiration chamber that can be sealed and placed in a light tight outer chamber. Electrodes and sensors are positioned in a single plane around the outside of the chamber—this system enables simultaneous measurement of oxygen uptake, membrane potential, calcium, and light scattering (absorbance). Oxygen uptake, membrane potential, and Cab are measured using Clark, TPP^+, and Ca^2+-sensitive electrodes, respectively see, Zhu, S., et al., Nature 417:74-78, 2002. A660 is measured using a diode. The chamber is water-jacketed to allow thermostabilization (15-to-1 water volume to sample volume −1 mL, closed chamber). Samples were constantly stirred using a top-mounted magnetic stir bar. Signals measured from electrodes and sensors are recorded on a computer through a commercially available L-154 card. Software has been written to enable data collection and analysis. All experiments were carried out in triplicate. Plots shown in the paper are representative.
# [3] = tested on: gerbil ischemia-reperfusion model; conditions: cited from earlier work
# [4] = molecular target: calmodulin (Homo sapiens, UniProt P0DP23); assay: Calmodulin-dependent calcineurin activity (pNPP hydrolysis); conditions: 300 μM compound
# [5] = tested on: PT induction in isolated rat liver mitochondria; assay: High throughput spectrophotometric PT-induced swelling assay following Ca2+ challenge; type: biochemical; conditions: for protection against PT induction, score in the initial screen: 10 μM, blind library screen
# Source text: This library was primarily composed of clinically-approved drugs that could readily be moved to late stage pre-clinical trials and then into accelerated clinical trials. […] The remainder of the library largely consisted of some analogues of these drugs, other known bioactive agents (including natural products, toxins and known inhibitors). Screening of this library was blind and was designed to identify compounds that acted independently of antioxidant activity or ability to chelate Ca^2+ (FIG. 2).
# Assays were performed on mitochondria energized with succinate, glutamate/malate, or α-ketoglutarate. […] Subsequent assays (see, Table 1) repeated this approach using inducers optimized to overcome protection mediated by chelators (high C^2+ or antioxidants (high tert-butyl hydroperoxide), based on the rationale that it was unlikely to identify novel drug activities in these categories.
# Each of these compounds was re-assayed against three models of PT induction and ranked according to the resistance it conferred to induction.
# Bars are coded by each drug's therapeutic class. […] Compounds were assayed in triplicate at 7 concentrations (30, 10, 3, 1, 0.3, 0.1, and 0.03 μM) against three different challenges (50 μM Ca^2+/2.5 mM K—PO4, 25 μM Ca^2+/5 mM K—PO4, 25 μM Ca^2+/2.5 mM K—PO4/100 μM tert-butyl hydroperoxide). […] To address potential inaccuracies introduced by calculation of the area under the curve, protection was also assayed as percent absorbance remaining when absorbance of an unprotected sample had dropped and stabilized. […] “N” for each drug is 7 to 9. Horizontal lines show mean and mean plus one standard deviation.
# [6] = tested on: primary cerebrocortical neurons; assay: Oxygen-glucose deprivation (OGD) of cultured primary cerebrocortical neurons; type: cell-based, mouse
# Method: Heterocyclic-mediated protection was next examined in two models of stroke: (i) oxygen-glucose deprivation (OGD) of cultured primary cerebrocortical neurons, and; (ii) in the mouse, middle cerebral artery occlusion (MCAO)/reperfusion.
# Neurotoxicity studies were conducted as previously described. […] Cerebral cortex of mouse embryos at day 15 (E15) were freed from meninges and separated from olfactory bulb and hippocampus.
# OGD of primary cerebrocortical neurons is a widely used cell culture model of stroke-related pathology. […] Caspase-3 activation plays a key role in hypoxia/ischemia-mediated injury. To gam insight into the mechanism of promethazine-mediated neuroprotection, it was evaluated whether this compound could inhibit OGD-mediated caspase-3 activation.
# [7] = tested on: mouse middle cerebral artery occlusion (MCAO); conditions: in vivo
# [8] = tested on: apoptosis / PT induction; conditions: suggested; by reducing mitochondrial oxidative stress; cited from earlier work
# [9] = tested on: phospholipase A2 (PLA2); conditions: cited from earlier work
# [10] = tested on: ischemia-reperfusion injury in multiple models; conditions: cited from earlier work
# [11] = tested on: humans; conditions: human, in vivo; cited from earlier work
smiles,measurement,setting,value
CN(C)CCCN1c2ccccc2Sc2ccc(Cl)cc21 [Chlorpromazine],functional impairment,[1],reduced
CN(C)CCCN1c2ccccc2CCc2ccc(Cl)cc21 [Clomipramine],Ca2+ transport,[2],without affecting
same,initial oxygen consumption prior to PT induction,[2],without affecting
same,resting or recovered Δψ,[2],without affecting
same,"protection against PT induction (swelling, A660)",[2],protected
same,hippocampal CA1 neuronal damage,[3]; 20 mg/kg,protect
OCCN1CCN(CCCN2c3ccccc3Sc3ccc(C(F)(F)F)cc32)CC1 [Flufenazine],Ca2+ transport,[2],without affecting
same,initial oxygen consumption prior to PT induction,[2],without affecting
same,resting or recovered Δψ,[2],without affecting
same,"protection against PT induction (swelling, A660)",[2],protected
CCOC(=O)N1CCC(=C2c3ccc(Cl)cc3CCc3cccnc32)CC1 [Loratadine],calmodulin activity (ratio to untreated plate controls),[4],apparent calmodulin activation
CSc1ccc2c(c1)C(N1CCN(C)CC1)Cc1ccccc1S2 (stereo not drawn) [Methiothepin],relative potency as PT inhibitor,[5]; ranking among the heterocyclics,approximately equivalent to promethazine in potency
same,Ca2+ transport,[2],without affecting
same,initial oxygen consumption prior to PT induction,[2],without affecting
same,resting or recovered Δψ,[2],without affecting
same,"protection against PT induction (swelling, A660)",[2],protected
CN1CCN2c3ccccc3Cc3ccccc3C2C1 (stereo not drawn) [Mianserin],protection in the gerbil ischemia model,[3]; 5-20 mg/kg,protects
CNCCC=C1c2ccccc2CCc2ccccc21 [Nortriptyline],OGD-mediated caspase-3 activation,[6],inhibits; also recorded: attenuated
same,OGD mediated cytochrome C release,[6]; Western blot,Inhibiting; also recorded: minimized
same,OGD cell death as measured by LDH release,[6]; nortriptyline,preventing cell death; also recorded: reduction
same,infarct (stroke) volume,[7],significant reduction
same,infarct area in coronal slices compared to the controls,[7],decreases
same,neurological examination following cerebral ischemia,[7],improves
same,neuroprotection following MCAO,[7],mediates neuroprotection
CSc1ccc2c(c1)N(CCC1CCCCN1C)c1ccccc1S2 (stereo not drawn) [Thioridazine],PT induction,[8],delay
same,apoptosis,[8],inhibit
CN1CCN(CCCN2c3ccccc3Sc3ccc(C(F)(F)F)cc32)CC1 [Trifluoperazine],"protection against PT induction, score in the initial screen",[5],moderate
same,functional impairment,[1],reduced
same,phospholipase A2 (PLA2) inhibition,[9],can inhibit
same,protection against ischemia-reperfusion injury,[10],protective
same,tolerability in humans,[11],limited utility for long-term use in humans because of its toxicity
CN1CCN(CC(=O)N2c3ccccc3C(=O)Nc3cccnc32)CC1 [pirenzepine],calmodulin activity (ratio to untreated plate controls),[4],apparent calmodulin activation
CC/C(=C(\c1ccccc1)c1ccc(OCCN(C)C)cc1)c1ccccc1 [tamoxifen],"protection against PT induction, score in the initial screen",[5],moderate
